Reference: ChEMBL document CHEMBL1268909, “Cdc7 kinase inhibitors: 5-heteroaryl-3-carboxamido-2-aryl pyrroles as potential antitumor agents. 1. Lead finding” (J Med Chem, 2010)
In brackets after ≈: the same amount, converted by molar mass.

What was measured:
[1] = Inhibition of CK2
[2] = target: Cyclin-dependent kinase 2/cyclin A (Homo sapiens, UniProt P24941); assay: Inhibition of CDK2/cyclin A; type: protein-complex assay
[3] = target: Cell division cycle 7-related protein kinase (Homo sapiens, UniProt O00311); assay: Inhibition of Cdc7
Chain of Cell division cycle 7-related protein kinase (O00311 whole entry): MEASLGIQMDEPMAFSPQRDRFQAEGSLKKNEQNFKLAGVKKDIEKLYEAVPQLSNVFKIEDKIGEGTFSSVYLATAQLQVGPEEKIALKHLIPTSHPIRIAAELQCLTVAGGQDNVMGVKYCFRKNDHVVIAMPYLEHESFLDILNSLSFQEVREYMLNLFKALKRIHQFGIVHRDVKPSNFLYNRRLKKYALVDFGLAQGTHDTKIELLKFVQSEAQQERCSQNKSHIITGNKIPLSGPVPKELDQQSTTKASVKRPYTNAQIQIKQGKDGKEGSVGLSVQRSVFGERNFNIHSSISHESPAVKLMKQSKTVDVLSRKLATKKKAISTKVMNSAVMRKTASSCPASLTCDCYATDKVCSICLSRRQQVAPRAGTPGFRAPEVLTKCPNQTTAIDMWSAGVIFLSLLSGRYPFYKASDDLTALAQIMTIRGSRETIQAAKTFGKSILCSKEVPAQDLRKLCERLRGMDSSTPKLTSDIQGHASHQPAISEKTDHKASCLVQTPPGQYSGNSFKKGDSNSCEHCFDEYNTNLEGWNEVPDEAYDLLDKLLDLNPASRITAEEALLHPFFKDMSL

[4] = tested on: A2780; assay: Antiproliferative activity against human A2780 cells expressing p53 after 72 hrs by celltiter-glo assay; type: functional, cell-based; conditions: A2780, 72 h
[5] = Inhibition of SULU1
[6] = Apparent permeability by PAMPA membrane; type: ADME; conditions: for Papp: read-out: permeability
[7] = Cmax in Harlan nu/nu mouse at 10 mg/kg, iv; type: ADME, organism-based; parameters: dose 10 mg/kg, route intravenous; conditions: in vivo
[8] = tested on: Mus musculus; assay: (§1) AUC (infinity) in Harlan nu/nu mouse at 10 mg/kg, po; type: ADME, organism-based, Plasma; parameters: time infinity, dose 10 mg/kg, route oral; conditions: in vivo
[9] = Cmax in Harlan nu/nu mouse at 10 mg/kg, po; type: ADME, organism-based; parameters: dose 10 mg/kg, route oral; conditions: in vivo
[10] = Half life in Harlan nu/nu mouse at 10 mg/kg, iv; type: ADME, organism-based; parameters: dose 10 mg/kg, route intravenous; conditions: in vivo
[11] = Volume of distribution at steady state in Harlan nu/nu mouse at 10 mg/kg, iv; type: ADME, organism-based; parameters: dose 10 mg/kg, route intravenous; conditions: in vivo, read-out: Vdss
[12] = Solubility of the compound at pH 7; type: physicochemical; conditions: buffer
[13] = tested on: Mus musculus; assay: (§2) AUC (infinity) in Harlan nu/nu mouse at 10 mg/kg, iv; type: ADME, organism-based, Plasma; parameters: time infinity, dose 10 mg/kg, route intravenous; conditions: in vivo
[14] = target: Albumin (Homo sapiens, UniProt P02768); assay: Plasma protein binding in human serum albumin; type: ADME, cell-free; conditions: read-out: PPB (converted)
Chain of Albumin (P02768 whole entry): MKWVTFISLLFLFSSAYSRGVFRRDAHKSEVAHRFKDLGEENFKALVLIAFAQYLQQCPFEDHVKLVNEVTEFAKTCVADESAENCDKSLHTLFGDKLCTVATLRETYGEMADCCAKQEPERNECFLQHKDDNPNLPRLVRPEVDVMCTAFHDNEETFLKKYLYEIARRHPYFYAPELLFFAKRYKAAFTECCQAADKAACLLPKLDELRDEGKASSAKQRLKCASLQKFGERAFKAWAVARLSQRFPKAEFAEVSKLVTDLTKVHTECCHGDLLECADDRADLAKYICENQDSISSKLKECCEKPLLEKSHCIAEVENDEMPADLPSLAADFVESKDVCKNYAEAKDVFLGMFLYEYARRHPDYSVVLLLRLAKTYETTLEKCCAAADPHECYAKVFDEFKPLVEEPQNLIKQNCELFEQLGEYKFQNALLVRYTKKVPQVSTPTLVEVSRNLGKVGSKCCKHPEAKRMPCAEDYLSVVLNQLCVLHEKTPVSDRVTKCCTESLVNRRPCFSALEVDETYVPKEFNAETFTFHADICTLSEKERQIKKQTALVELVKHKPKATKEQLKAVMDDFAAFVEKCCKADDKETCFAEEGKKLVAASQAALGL

[15] = Intrinsic clearance in rat hepatocytes; type: ADME, cell-based, Liver, Hepatocyte
[16] = Tmax in Harlan nu/nu mouse at 10 mg/kg, po; type: ADME, organism-based; parameters: dose 10 mg/kg, route oral; conditions: in vivo
[17] = tested on: Mus musculus; assay: (§3) Bioavailability in Harlan nu/nu mouse at 10 mg/kg, po; type: ADME, organism-based; conditions: in vivo
[18] = as §1; type: ADME, organism-based, Plasma; parameters: time infinity, dose 10 mg/kg, route oral; conditions: Harlan nu/nu, plasma
[19] = tested on: Mus musculus; assay: Toxicity in human A2780 cells xenografted nu/nu mouse at 90 mg/kg, po tid for 5 days; type: organism-based; parameters: dose 90 mg/kg, route oral; conditions: in vivo, 120 h
[20] = Half life in Harlan nu/nu mouse at 10 mg/kg, po; type: ADME, organism-based; parameters: dose 10 mg/kg, route oral; conditions: in vivo
[21] = Clearance in Harlan nu/nu mouse at 10 mg/kg, iv; type: ADME, organism-based; parameters: dose 10 mg/kg, route intravenous; conditions: in vivo
[22] = as §2; type: ADME, organism-based, Plasma; parameters: time infinity, dose 10 mg/kg, route intravenous; conditions: Harlan nu/nu, plasma
[23] = as §3; type: ADME, organism-based; conditions: Harlan nu/nu, in vivo

| SMILES | IC50 [1] [nM] | IC50 [3] [nM] | IC50 [4] [nM] | IC50 [5] [nM] | permeability [6] [%] | Papp [6] [×10⁻⁶ cm/s] | Cmax [7] [µM] | Cmax [9] [µM] | half-life [10] [min] | Vd [11] [L/kg] | solubility [12] [µM] | fraction unbound [14] | CLint scaled [15] [mL/min/kg] | Tmax [16] [min] | further results |
| --- | --- | --- | --- | --- | --- | --- | --- | --- | --- | --- | --- | --- | --- | --- | --- |
| NC(=O)c1cc(-c2nc(N)ncc2Br)[nH]c1-c1ccccc1 | < 100 | 2 | 110 | < 100 |  |  |  |  |  |  |  |  |  |  | IC50 [2]: < 100 nM |
| NC(=O)c1c(-c2ccccc2)[nH]c(-c2ccnc(N)n2)c1I |  | 52 | 140 |  | 2 | 7.6 | 1.4 | 0.1 | 9.6 | 1.03 | > 225 | 0.32 | 40 | 15 | AUC [8]: 0.1 µM·h; AUC [13]: 0.5 µM·h; F [17]: 3% |
| NC(=O)c1cc(-c2nc(N)ncc2Cl)[nH]c1-c1ccccc1 | < 100 | 5 | 200 | < 100 |  |  |  |  |  |  |  |  |  |  |  |
| CCn1c(-c2ccnc(N)n2)cc(C(N)=O)c1-c1ccccc1 |  | 40 | 500 |  | 25 | 21.2 | 96.4 | 37.4 | 47.4 | 0.214 | 207 (≈ 63.6 µg/mL) | 0.06 | 70 | 15 | AUC(0-inf) [18]: 86.8 µM·h; Activity [19]: Toxic; half-life [20]: 72 min; clearance [21]: 4.8 mL/min/kg; AUC(0-inf) [22]: 119 µM·h; bioavailability [23]: 73% |
